Data as given in ChEMBL document CHEMBL1201862, “PubChem BioAssay data set” (2004).
Activity calls are given as the source filed them.

How the values were obtained:
[1] = THP-1 cell cytotoxicity, dose response, cytotoxicity control for non-replicating M. tuberculosis project (AID 489025); format: functional
[2] = molecular target: T1, Microphthalmia-associated transcription factor (Homo sapiens, UniProt O75030); assay: TRPM1 promoter luciferase signal decrease, dose response, MITF inhibitor project, cell-based, SK-MEL-5, cherry-picked, set 3 (AID 493073); format: functional
T1 sequence (O75030 whole entry): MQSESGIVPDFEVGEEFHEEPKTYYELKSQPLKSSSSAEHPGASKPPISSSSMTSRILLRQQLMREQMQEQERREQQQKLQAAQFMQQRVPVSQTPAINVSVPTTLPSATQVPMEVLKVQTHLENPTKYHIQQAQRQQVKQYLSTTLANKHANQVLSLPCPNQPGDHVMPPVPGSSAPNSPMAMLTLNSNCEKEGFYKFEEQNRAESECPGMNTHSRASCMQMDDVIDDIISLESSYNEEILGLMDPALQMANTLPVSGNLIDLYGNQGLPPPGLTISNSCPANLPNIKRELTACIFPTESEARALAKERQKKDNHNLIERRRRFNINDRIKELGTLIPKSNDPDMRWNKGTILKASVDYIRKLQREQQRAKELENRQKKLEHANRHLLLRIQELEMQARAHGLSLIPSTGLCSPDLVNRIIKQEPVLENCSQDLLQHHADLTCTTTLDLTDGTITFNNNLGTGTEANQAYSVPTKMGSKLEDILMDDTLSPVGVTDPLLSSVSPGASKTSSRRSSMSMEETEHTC

Escherichia coli = assay: microbe, parasite or virus in culture
INS1 = assay: beta cell apoptosis inhibitors, cytokine rescue, dose response, luminescence, retest (AID 449756); format: functional, cell-based; conditions: Rattus norvegicus;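 note: cell death triggered by IL-1 beta plus TNF-alpha plus IFN-gamma mixture; protective hits raise ATP signal compared with cytokine alone wells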
[3] = cytotoxicity toward NIH3T3 fibroblasts, dose response, counter-screen, cell-based, ATP luminescence, mouse fibroblasts (AID 2010); format: functional;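 note: cells exposed to compound for about 90 hours before reading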
cells = format: functional
[4] = HepG2 cell cytotoxicity, dose response, cytotoxicity control for non-replicating M. tuberculosis project (AID 489018); format: functional; conditions: Mycobacterium tuberculosis
[5] = Vero E6 cell cytotoxicity, dose response, cytotoxicity control for non-replicating M. tuberculosis project, secondary assay (AID 492998); format: functional, VeroE6; conditions: Vero C1008
[6] = inhibitors of intracellular T. cruzi replication, confirmation, NIH3T3 host cells, beta-gal luminescence (AID 2044); format: functional, cell-based;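 note: intracellular parasites grown in NIH/3T3 mouse fibroblasts as host cells; luminescent beta-galactosidase reporter signal from transgenic T. cruzi replicating inside host cells; inhibitors lower the luminescence signal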
[7] = molecular target: T2, E3 ubiquitin-protein ligase XIAP (Homo sapiens, UniProt P98170); assay: Counter Screen using XIAP-Bir3 for Chemical Antagonists of Bir1/2 domains of IAP-family anti-apoptotic proteins. [Related pubchem assays (depositor defined):AID1018, AID1449, AID1514, AID1638, AID1749, AID1750, AID488957, AID488963]
T2 sequence (P98170 whole entry): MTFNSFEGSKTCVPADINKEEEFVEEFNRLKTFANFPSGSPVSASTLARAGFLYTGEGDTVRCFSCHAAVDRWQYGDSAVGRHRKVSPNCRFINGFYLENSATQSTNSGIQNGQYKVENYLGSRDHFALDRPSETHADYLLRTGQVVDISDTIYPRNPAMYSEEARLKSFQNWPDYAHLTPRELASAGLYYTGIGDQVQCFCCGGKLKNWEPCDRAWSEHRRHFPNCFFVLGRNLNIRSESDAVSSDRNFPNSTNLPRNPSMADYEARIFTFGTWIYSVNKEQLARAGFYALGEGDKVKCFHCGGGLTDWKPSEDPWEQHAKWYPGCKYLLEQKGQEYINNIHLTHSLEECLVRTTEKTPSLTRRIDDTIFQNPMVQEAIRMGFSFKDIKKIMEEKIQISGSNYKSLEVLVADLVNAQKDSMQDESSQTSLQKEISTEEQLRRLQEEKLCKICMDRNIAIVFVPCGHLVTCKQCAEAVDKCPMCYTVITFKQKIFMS

[8] = molecular target: T2, E3 ubiquitin-protein ligase XIAP; assay: XIAP antagonists, biochemical, IAP family, fluorescence polarization (AID 1018); format: functional
[9] = molecular target: FAD-linked sulfhydryl oxidase ALR (Homo sapiens, UniProt P55789); assay: inhibitors of human ALR sulfhydryl oxidase, dose response, biochemical, H2O2 detection, luminescence, cherry-pick (AID 493248)
Chain of FAD-linked sulfhydryl oxidase ALR (P55789 whole entry): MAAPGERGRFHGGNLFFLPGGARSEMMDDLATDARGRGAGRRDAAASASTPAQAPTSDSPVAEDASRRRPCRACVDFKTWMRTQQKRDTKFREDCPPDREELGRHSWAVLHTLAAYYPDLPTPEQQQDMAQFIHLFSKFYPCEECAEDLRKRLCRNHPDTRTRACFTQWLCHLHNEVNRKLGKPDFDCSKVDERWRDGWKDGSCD

Leucine aminopeptidase = molecular target: T3, Leucine aminopeptidase (Plasmodium falciparum 3D7, UniProt Q8IL11); assay: P. falciparum M17LAP inhibitors, primary screen, biochemical, fluorogenic H-Leu-NHMec substrate, 1536-well (AID 1619); format: functional
T3 sequence (Q8IL11 whole entry): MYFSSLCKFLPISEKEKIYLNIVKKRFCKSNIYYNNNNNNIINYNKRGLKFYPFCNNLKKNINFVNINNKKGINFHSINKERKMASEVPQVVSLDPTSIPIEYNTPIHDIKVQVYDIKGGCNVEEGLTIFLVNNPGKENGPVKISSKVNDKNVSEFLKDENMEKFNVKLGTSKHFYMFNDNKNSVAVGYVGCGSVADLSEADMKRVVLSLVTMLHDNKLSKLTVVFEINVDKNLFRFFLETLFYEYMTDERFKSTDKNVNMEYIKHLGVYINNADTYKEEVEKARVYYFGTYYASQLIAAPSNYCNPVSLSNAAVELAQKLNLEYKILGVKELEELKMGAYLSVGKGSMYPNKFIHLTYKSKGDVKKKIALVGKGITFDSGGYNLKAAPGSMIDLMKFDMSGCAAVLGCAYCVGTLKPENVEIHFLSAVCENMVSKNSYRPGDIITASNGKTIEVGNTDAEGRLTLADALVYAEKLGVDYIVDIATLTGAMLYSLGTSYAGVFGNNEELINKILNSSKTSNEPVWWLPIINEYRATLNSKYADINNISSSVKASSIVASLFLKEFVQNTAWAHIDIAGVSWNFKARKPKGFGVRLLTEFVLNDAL

[10] = molecular target: Type-1 angiotensin II receptor (Homo sapiens, UniProt P30556); assay: AT1 receptor antagonists, dose response, selectivity assay for APJ receptor antagonist project, cell-based, uHTS hits (AID 463214); format: functional;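 note: antagonist potency against angiotensin II stimulated AT1 response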
Chain of Type-1 angiotensin II receptor (P30556 whole entry): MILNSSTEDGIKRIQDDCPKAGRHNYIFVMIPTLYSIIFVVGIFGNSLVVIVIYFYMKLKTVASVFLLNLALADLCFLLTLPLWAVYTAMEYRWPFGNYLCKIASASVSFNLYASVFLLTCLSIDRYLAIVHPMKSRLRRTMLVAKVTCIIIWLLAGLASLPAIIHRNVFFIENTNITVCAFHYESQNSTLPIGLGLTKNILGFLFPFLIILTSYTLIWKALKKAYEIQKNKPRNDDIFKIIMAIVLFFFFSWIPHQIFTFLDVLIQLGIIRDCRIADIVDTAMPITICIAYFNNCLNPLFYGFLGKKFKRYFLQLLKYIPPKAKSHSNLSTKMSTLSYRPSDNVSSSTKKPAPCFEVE

[11] = growth suppression of PTEN-null colon cells, dose response, cell-based, HCT116 PTEN knockout (AID 1047); format: functional;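 note: HCT116 colon tumor cells with PTEN knocked out; cells exposed to compound for 60 hours before readout; potency for loss of cell viability measured by luminescence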
[12] = growth suppression of beta-catenin-knockout colon cells, dose response, cell-based, HCT116, human colon tumor (AID 1045); format: functional;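 note: HCT116 colon tumor cells with beta catenin knocked out; cells exposed to compound for 60 hours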
Beta-galactosidase = Beta-galactosidase (Escherichia coli, UniProt Q8VNN2); assay: PubChem AID 485352; format: functional
Chain of Beta-galactosidase (Q8VNN2 whole entry): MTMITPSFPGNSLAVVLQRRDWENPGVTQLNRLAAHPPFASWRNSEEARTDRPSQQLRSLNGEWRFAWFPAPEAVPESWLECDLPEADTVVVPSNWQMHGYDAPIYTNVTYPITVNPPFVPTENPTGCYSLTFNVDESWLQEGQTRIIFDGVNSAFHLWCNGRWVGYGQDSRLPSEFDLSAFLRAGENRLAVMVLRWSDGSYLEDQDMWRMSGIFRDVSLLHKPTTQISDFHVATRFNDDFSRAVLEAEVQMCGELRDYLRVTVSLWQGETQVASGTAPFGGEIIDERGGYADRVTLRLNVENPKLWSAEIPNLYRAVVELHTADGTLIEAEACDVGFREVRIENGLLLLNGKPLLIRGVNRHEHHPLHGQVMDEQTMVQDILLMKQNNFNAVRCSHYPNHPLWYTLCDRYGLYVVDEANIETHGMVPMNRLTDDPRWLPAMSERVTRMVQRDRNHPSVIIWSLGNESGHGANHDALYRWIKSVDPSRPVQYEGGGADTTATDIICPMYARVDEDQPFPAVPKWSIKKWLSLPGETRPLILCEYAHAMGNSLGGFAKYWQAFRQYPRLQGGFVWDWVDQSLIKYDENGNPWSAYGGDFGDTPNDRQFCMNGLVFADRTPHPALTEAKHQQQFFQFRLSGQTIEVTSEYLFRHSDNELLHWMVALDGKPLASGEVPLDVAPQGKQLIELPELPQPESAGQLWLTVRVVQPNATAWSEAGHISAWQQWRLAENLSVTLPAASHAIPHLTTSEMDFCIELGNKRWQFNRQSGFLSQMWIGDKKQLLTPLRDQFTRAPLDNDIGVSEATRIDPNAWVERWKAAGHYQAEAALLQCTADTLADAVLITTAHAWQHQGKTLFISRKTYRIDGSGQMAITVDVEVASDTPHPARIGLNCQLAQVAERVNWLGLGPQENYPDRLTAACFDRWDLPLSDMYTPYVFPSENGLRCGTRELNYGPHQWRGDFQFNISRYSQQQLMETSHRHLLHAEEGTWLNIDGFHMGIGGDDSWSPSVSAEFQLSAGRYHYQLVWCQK

Keap1/Nrf2 = Keap1/Nrf2 (Homo sapiens, UniProt Q14145); assay: Keap1-Nrf2 protein-protein interaction inhibitors, dose response, biochemical, fluorescence polarization, cherry-picked samples (AID 588683)
Chain of Keap1/Nrf2 (Q16236 whole entry): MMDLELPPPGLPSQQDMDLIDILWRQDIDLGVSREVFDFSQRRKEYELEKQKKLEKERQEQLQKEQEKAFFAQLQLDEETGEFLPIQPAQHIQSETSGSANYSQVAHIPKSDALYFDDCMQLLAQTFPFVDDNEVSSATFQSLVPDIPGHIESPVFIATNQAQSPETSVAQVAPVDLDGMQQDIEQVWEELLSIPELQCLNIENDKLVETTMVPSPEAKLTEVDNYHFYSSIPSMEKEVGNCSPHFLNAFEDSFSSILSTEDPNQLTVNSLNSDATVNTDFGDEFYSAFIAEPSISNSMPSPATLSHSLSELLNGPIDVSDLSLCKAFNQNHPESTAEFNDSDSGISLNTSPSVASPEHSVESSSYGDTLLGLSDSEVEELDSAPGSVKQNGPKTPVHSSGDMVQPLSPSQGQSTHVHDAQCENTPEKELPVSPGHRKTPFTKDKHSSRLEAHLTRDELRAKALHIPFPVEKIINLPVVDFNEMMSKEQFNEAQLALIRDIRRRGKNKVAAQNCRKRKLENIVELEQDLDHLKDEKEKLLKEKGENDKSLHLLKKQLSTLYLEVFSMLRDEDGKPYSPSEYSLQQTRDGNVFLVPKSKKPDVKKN
Chain of Keap1/Nrf2 (Q14145 whole entry): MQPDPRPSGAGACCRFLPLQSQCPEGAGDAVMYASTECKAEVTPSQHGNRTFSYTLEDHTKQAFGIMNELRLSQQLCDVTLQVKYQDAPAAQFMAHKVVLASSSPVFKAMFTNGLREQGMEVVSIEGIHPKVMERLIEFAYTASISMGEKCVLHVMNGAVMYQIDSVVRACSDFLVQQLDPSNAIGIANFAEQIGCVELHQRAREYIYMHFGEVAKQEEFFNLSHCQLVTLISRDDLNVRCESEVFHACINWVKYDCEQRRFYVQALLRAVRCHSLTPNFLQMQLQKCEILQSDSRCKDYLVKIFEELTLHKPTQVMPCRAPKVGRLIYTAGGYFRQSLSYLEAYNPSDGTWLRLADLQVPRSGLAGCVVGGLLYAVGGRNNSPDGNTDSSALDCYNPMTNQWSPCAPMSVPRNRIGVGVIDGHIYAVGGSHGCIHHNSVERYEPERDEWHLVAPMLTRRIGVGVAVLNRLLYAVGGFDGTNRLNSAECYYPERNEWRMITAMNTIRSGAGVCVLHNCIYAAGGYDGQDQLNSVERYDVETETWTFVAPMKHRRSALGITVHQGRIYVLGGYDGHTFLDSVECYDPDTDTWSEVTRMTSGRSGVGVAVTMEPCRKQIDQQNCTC

[13] = molecular target: T4, Short transient receptor potential channel 4 (Mus musculus, UniProt Q9QUQ5); assay: mouse TRPC4 channel inhibitors, dose response, cell-based, HEK293 TRPC4/mu-opioid, Fluo-4 calcium (AID 434942); format: functional;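 note: potency of inhibitors blocking the TRPC4 calcium response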
T4 sequence (Q9QUQ5 whole entry): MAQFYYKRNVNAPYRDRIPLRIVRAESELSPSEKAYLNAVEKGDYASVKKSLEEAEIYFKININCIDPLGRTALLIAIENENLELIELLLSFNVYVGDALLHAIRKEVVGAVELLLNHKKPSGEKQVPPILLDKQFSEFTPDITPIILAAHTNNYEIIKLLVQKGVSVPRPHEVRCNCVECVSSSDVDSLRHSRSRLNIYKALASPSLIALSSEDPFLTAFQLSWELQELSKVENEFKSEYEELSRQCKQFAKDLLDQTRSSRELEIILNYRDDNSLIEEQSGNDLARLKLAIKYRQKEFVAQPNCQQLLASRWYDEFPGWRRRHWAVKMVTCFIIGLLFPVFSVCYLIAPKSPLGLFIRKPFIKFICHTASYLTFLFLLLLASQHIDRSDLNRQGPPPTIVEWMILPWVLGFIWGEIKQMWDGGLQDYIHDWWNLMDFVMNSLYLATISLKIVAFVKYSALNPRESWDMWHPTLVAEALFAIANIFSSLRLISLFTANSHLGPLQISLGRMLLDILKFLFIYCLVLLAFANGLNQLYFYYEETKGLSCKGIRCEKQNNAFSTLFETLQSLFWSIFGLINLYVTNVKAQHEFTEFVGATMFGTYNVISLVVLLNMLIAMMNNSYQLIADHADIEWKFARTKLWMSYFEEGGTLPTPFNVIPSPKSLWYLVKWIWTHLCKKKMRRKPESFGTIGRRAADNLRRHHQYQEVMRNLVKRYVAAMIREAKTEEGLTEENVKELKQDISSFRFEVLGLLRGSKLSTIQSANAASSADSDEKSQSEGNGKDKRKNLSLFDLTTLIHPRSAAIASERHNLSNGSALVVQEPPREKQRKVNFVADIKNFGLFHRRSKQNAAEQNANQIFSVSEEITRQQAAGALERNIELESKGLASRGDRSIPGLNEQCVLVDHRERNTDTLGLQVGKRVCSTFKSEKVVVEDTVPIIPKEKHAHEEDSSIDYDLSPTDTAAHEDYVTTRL

[14] = molecular target: Intestinal-type alkaline phosphatase (Homo sapiens, UniProt P09923); assay: human intestinal alkaline phosphatase activators, dose response, biochemical, luminescence, uHTS hits (AID 463120); format: functional
Chain of Intestinal-type alkaline phosphatase (P09923 whole entry): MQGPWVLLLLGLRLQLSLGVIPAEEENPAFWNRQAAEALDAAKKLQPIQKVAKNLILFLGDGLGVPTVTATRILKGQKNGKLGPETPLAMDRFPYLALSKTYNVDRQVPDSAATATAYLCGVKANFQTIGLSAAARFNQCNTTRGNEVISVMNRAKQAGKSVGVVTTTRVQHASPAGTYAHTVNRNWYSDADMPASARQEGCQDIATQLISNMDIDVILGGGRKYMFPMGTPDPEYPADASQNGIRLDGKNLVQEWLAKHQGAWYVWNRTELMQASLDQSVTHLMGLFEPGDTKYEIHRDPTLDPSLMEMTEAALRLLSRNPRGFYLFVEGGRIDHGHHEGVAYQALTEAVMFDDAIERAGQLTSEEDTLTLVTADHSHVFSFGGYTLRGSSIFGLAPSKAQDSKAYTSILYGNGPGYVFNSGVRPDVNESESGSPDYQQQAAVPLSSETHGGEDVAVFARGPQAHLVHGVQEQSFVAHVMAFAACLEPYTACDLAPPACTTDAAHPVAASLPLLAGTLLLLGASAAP

[15] = molecular target: T4, Short transient receptor potential channel 4; assay: mouse TRPC4 channel activators, dose response, cell-based, HEK293 TRPC4/mu-opioid, Fluo-4 calcium (AID 434937); format: functional

With `O=[N+]([O-])c1ccc(/C=N/n2c(CO)nc3ccccc32)s1` the CC50 [1] was 32.4 µM (active), the AC50 [2] was 1.97 µM (active) and the AC50 (Escherichia coli) was 121 µM (active). For the same compound, the AC50 (INS1) was 4.91 µM (active), the EC50 [3] was 42 µM (active) and the IC50 (cells) was 1.51 µM (active). The CC50 [4] was > 20 µM (active), the CC50 [5] was 14.7 µM (active) and the EC50 [6] was 0.568 µM (active).
With `O=[N+]([O-])c1ccccc1S(=O)(=O)N1CCCCC1` the IC50 [7] was > 100 µM (inactive) and the IC50 [8] was > 100 µM (not active).
In the case of `CSc1cccc(NC(=O)CN2C(=O)c3ccccc3S2(=O)=O)c1`, the AC50 [9] is reported as 2.37 µM (active), the IC50 (Leucine aminopeptidase) is reported as 5.87 µM (active) and the IC50 [7] is reported as > 100 µM (inactive). The IC50 [8] was > 100 µM (not active).
With `O=C1Nc2ccc(Br)cc2/C1=N/N=C/C1=C(N2CCOCC2)C(=C\c2ccccc2)/CC1` the IC50 [10] was > 40 µM (not active), the EC50 [11] was 9.88 µM (active) and the EC50 [12] was 11.4 µM (active). The EC50 (Beta-galactosidase) was > 40 µM (inactive).
With `COc1cccc(/C=C/C(=O)OCC(=O)NC(=O)NC2CCCC2)c1` the AC50 (Keap1/Nrf2) was > 52 µM (inactive).
For `C/C(=N/NC(=O)c1ccc(Cn2cccn2)o1)c1cccc(NC(=O)c2ccncc2)c1`, the EC50 [13] was 3.76 µM (active), the EC50 [14] was > 100 µM (inactive) and the EC50 [15] was 5.31 µM (active).
